From patent US20220117938A1, “COMBINATON THERAPY WITH A DON PRODRUG AND AN IMMUNE CHECKPOINT INHIBITOR” (DRACEN PHARMACEUTICALS, INC., priority 2019, published 2022)

Key:
LK-2 tumors = assay: Anti-tumor efficacy of Compound 1 in the LK-2 xenograft model (Example 13); type: in vivo, mice
Protocol: Female BALB/c nude mice were inoculated subcutaneously in the right flank with LK-2 cells for tumor development. Four days after tumor inoculation, mice with tumor sizes reaching approximately 171 mm^3 (range from 112 mm^3 to 222 mm^3) were selected and assigned into groups using stratified randomization with 8 mice per group based upon their tumor volumes. The treatments were started from the day of randomization (defined as D0), Group 1 was treated with Vehicle control, 10 ml/kg, IP, bid×19; Group 2 was treated with Compound 1, 1.4 mg/kg, SC, 5d ON, 2d OFF×2 cycles, followed Compound 1, 2.8 mg/kg, SC, 5d ON, 2 d OFF×1 cycle; Group 3 was treated with Compound 1, 7 mg/kg, IV, tiw (Mon, Wed, Fri)×3 cycles; and Group 4 was treated with Compound 1, 3.3 mg/kg, IV, tiw (Mon, Wed, Fri)×3 cycles. The tumor sizes were measured two times per week during the treatment. The entire study was terminated on D18 after start of the treatment. All treatments were well-tolerated without any adverse effects or significant body weight loss.

MC-38 tumors = assay: MC-38 re-implantation study in tumor free mice (Example 3); type: in vivo, Mus musculus; conditions: for Tumor volume (Mean ± SEM): four tumor free mice of Group 5 (0.7 mpk 5-days ON 2-days OFF x 4 cycles)
Protocol: Four mice in Group 5 were tumor free on D67 and 1×10^6 MC-38 cells suspended in 100 μL base DMEM were inoculated subcutaneously into the left flank. 5 naïve mice were inoculated with the same inoculation condition as control. The tumor sizes were measured three times per week during the treatment. The study was terminated on D102.
Four mice in Group 5 were tumor free on D67 and 1×10^6 MC-38 cells suspended in 100 μL base DMEM were inoculated subcutaneously into the left flank. 5 naïve mice were inoculated with the same inoculation condition as control.

[1] = Group 2, 1.4 mg/kg SC 5 d ON 2 d OFF x2 cycles, then 2.8 mg/kg x1 cycle
[2] = Group 3, 7 mg/kg IV tiw x3 cycles
[3] = Group 4, 3.3 mg/kg IV tiw x3 cycles
[4] = 4 cured mice of Group 5 (0.7 mpk) re-implanted with MC-38 cells

Structure (SMILES): CC(=O)N[C@@H](Cc1c[nH]c2ccccc12)C(=O)N[C@@H](CCC(=O)C=[N+]=[N-])C(=O)OC(C)C [Compound 1, Isopropyl (S)-2-((S)-2-acetamido-3-(1H-indol-3-yl)propanamido)-6-diazo-5-oxohexanoate]
- RTV at day 11 (LK-2 tumors; [1]): 8.13 ± 1.31
- T/C (LK-2 tumors; [1]): 84.34%
- TGI (LK-2 tumors; [1]): 19.84%
- Tumor Size at day 14 (LK-2 tumors; [1]): 1359 ± 207 mm^3
- Tumor volume (LK-2 tumors; Group 2, 1.4 mg/kg SC 5 d ON 2 d OFF x2 cycles, then 2.8 mg/kg x1 cycle, day 0): 171 ± 10 mm^3
- Tumor volume (LK-2 tumors; Group 2, 1.4 mg/kg SC 5 d ON 2 d OFF x2 cycles, then 2.8 mg/kg x1 cycle, day 2): 207 ± 19 mm^3
- Tumor volume (LK-2 tumors; Group 2, 1.4 mg/kg SC 5 d ON 2 d OFF x2 cycles, then 2.8 mg/kg x1 cycle, day 4): 217 ± 24 mm^3
- Tumor volume (LK-2 tumors; Group 2, 1.4 mg/kg SC 5 d ON 2 d OFF x2 cycles, then 2.8 mg/kg x1 cycle, day 7): 419 ± 81 mm^3
- Tumor volume (LK-2 tumors; Group 2, 1.4 mg/kg SC 5 d ON 2 d OFF x2 cycles, then 2.8 mg/kg x1 cycle, day 10): 780 ± 128 mm^3
- Tumor volume (LK-2 tumors; Group 2, 1.4 mg/kg SC 5 d ON 2 d OFF x2 cycles, then 2.8 mg/kg x1 cycle, day 14): 1359 ± 207 mm^3
- RTV at day 11 (LK-2 tumors; [2]): 6.29 ± 0.75
- T/C (LK-2 tumors; [2]): 65.30%
- TGI (LK-2 tumors; [2]): 40.73%
- Tumor Size at day 14 (LK-2 tumors; [2]): 1050 ± 113 mm^3
- Tumor volume (LK-2 tumors; Group 3, 7 mg/kg IV tiw x3 cycles, day 0): 171 ± 11 mm^3
- Tumor volume (LK-2 tumors; Group 3, 7 mg/kg IV tiw x3 cycles, day 2): 196 ± 9 mm^3
- Tumor volume (LK-2 tumors; Group 3, 7 mg/kg IV tiw x3 cycles, day 4): 213 ± 8 mm^3
- Tumor volume (LK-2 tumors; Group 3, 7 mg/kg IV tiw x3 cycles, day 7): 256 ± 13 mm^3
- Tumor volume (LK-2 tumors; Group 3, 7 mg/kg IV tiw x3 cycles, day 10): 483 ± 44 mm^3
- Tumor volume (LK-2 tumors; Group 3, 7 mg/kg IV tiw x3 cycles, day 14): 1050 ± 113 mm^3
- Tumor volume (LK-2 tumors; Group 3, 7 mg/kg IV tiw x3 cycles, day 17): 1565 ± 175 mm^3
- RTV at day 11 (LK-2 tumors; [3]): 7.66 ± 0.88
- T/C (LK-2 tumors; [3]): 79.51%
- TGI (LK-2 tumors; [3]): 24.13%
- Tumor Size at day 14 (LK-2 tumors; [3]): 1294 ± 172 mm^3
- Tumor volume (LK-2 tumors; Group 4, 3.3 mg/kg IV tiw x3 cycles, day 0): 170 ± 10 mm^3
- Tumor volume (LK-2 tumors; Group 4, 3.3 mg/kg IV tiw x3 cycles, day 2): 193 ± 6 mm^3
- Tumor volume (LK-2 tumors; Group 4, 3.3 mg/kg IV tiw x3 cycles, day 4): 211 ± 6 mm^3
- Tumor volume (LK-2 tumors; Group 4, 3.3 mg/kg IV tiw x3 cycles, day 7): 374 ± 47 mm^3
- Tumor volume (LK-2 tumors; Group 4, 3.3 mg/kg IV tiw x3 cycles, day 10): 577 ± 68 mm^3
- Tumor volume (LK-2 tumors; Group 4, 3.3 mg/kg IV tiw x3 cycles, day 14): 1294 ± 172 mm^3
- Re-implanted cured mice still tumor free on Day 35 after re-implantation (MC-38 tumors; [4]): one
- Re-implanted cured mice that regrew the tumor (MC-38 tumors; [4]): three
- Tumor volume (Mean ± SEM) (MC-38 tumors; Day 7 after re-implantation): 32 ± 14 mm^3
- Tumor volume (Mean ± SEM) (MC-38 tumors; Day 9 after re-implantation): 106 ± 44 mm^3
- Tumor volume (Mean ± SEM) (MC-38 tumors; Day 11 after re-implantation): 152 ± 55 mm^3
- Tumor volume (Mean ± SEM) (MC-38 tumors; Day 14 after re-implantation): 373 ± 174 mm^3
- Tumor volume (Mean ± SEM) (MC-38 tumors; Day 16 after re-implantation): 568 ± 258 mm^3
- Tumor volume (Mean ± SEM) (MC-38 tumors; Day 18 after re-implantation): 886 ± 429 mm^3
- Tumor volume (Mean ± SEM) (MC-38 tumors; Day 21 after re-implantation): 1911 ± 794 mm^3
